From patent US9133182B2, “Selective androgen receptor modulators” (Radius Health, Inc., priority 2010, dated 2015) come the findings set out here.

Assay [1] deals with androgen receptor (Rattus norvegicus (Rat), UniProt P15207). As to the kind of experiment: androgen receptor binding assay (fluorescence polarization, Invitrogen). The following applies: AR-Fluormone complex, 4 h at room temperature. The protocol: The assay was performed as specified by the manufacturer (Invitrogen, Madison, Wis.). Briefly, 1 μl of 10 mM compound was added to 500 μl of AR screening buffer in a 1.5 ml eppendorf tube to make a 2×10^−5M stock. 10-fold serial dilutions of the test compounds were prepared ranging in concentration from 10^−5M to 10^−12M. Each dilution was added in triplicate to a black 384-microtiter plate. The test compounds will be diluted 2-fold in the final reaction. 2×AR-Fluormone™ complex was prepared with 2 nM Flourmone AL Green™ and 30 nM AR. 25 μl of 2×complex was aliquoted to each reaction well, such that the final reaction volume was 50 μl per well. Plate was sealed with a foil cover and incubated in the dark at room temperature for 4 h. Polarization values for each well were measured. The polarization values were plotted against the concentration of the test compound. […] As a control, a competition curve for R1881 (methyltrienolone) was performed for each assay.
Sequence of androgen receptor (P15207 651-902): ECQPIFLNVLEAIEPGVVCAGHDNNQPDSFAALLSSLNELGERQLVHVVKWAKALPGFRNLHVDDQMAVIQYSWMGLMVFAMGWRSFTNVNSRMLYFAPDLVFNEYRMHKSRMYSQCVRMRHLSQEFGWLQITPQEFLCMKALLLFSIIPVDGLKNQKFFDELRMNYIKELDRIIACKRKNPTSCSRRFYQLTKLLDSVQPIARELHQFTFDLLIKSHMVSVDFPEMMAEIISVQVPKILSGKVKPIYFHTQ

The subject of assay [2] is immature, castrated rat (levator ani and bulba cavernous, LABC). As to the kind of experiment: In vivo rat Herschberger assay, LABC weight. The arrangement: key: no = no activity observed at highest dose tested.; yes = increased LABC weight relative to castrated vehicle control. The following applies: once daily oral gavage for 4 days. The source says: In Vivo Rat Model of Androgen and Anabolic Activity-Rat Herschberger Assay
The following is a typical procedure of the in vivo evaluation of the selective androgens of this invention. In particular, this assay looks primarily at the ability of the selective androgens of this invention to increase muscle size in an immature, castrated rat. In addition, androgenic effects are looked at primarily by weighing the prostate and seminal vesicles. Selective compounds will show a greater increase in the levator ani relative to the prostate and seminal vesicles when compared to testosterone treated, castrated animals or to intact animals that have not been treated. Immature Sprague Dawley male rats were obtained Charles River Laboratories (Stoneridge, N.Y.). All animals were maintained in a temperature and humidity controlled room with a 12 hr light: 12 hr dark cycle, with ad lib access to food (TD 291615, Teklad, Madison, Wis.) and water. Rats were anesthetized and orchidectomized (GDX) or sham surgery (SHAM) was performed. After a 7-day recovery period, the animals were randomized according to weight and assigned to treatment groups (n=5), SHAM, OVX+vehicle, OVX+Cpd treated. Testosterone propionate (TP 1 mg/kg in 5% DMSO/95% corn oil) was administered by once daily subcutaneous injections, while the compounds of the invention are dosed in vehicle (0.5% carboxymethylcellulose) was administered by once daily oral gavage. The rats were then dosed once daily for 4 days. All animals were euthanized via carbon dioxide inhalation 24 hs after the last dose. The prostate, seminal vesicle and levator ani and bulba cavernous (LABC) tissues were removed, weighed and recorded. An increase in mean LABC indicates anabolic activity for that particular compound with regard to oral dosing typically at a maximum tested dose of between 1 mg/kg and 30 mg/kg—see Table 1.

Where [3] appears, read: maximum tested dose between 1 mg/kg and 30 mg/kg, Table 1.

What is called IC50 is the midpoint of a concentration-inhibition curve.

Turning to `Cc1c(N2C(=O)OC[C@@H]2[C@H](O)C(F)(F)F)ccc(C#N)c1Cl` [Example 11, 2-chloro-3-methyl-4-((R)-2-oxo-4-((S)-2,2,2-trifluoro-1-hydroxyethyl)oxazolidin-3-yl)benzonitrile], in assay [1] (Table 1), the half-maximal inhibitory concentration (IC50) stood at 25 nM. For the same compound, the “Oral activity in Herscheberger assay on LABC weight” value (shortened to “Oral activity”) in assay [2] (setting [3]) is listed as “yes”.

As to `Cc1c(N2C(=O)OC[C@@H]2[C@H](O)C(F)(F)F)ccc(C#N)c1C(F)(F)F` [Example 13, 3-methyl-4-((R)-2-oxo-4-((S)-2,2,2-trifluoro-1-hydroxyethyl)oxazolidin-3-yl)-2-(trifluoromethyl)benzonitrile], the IC50 in assay [1] (Table 1) worked out at 13 nM. Besides, the “Oral activity” value in assay [2] (setting [3]) was “yes”.

With `Cc1c(N2C(=O)O[C@@H](C)[C@@H]2[C@H](O)C(F)(F)F)ccc(C#N)c1Cl` [Example 17, 2-chloro-3-methyl-4-((4S,5S)-5-methyl-2-oxo-4-((S)-2,2,2-trifluoro-1-hydroxyethyl)oxazolidin-3-yl)benzonitrile], in assay [1] (Table 1), the IC50 was 13 nM. Besides, in assay [2] (setting [3]), the “Oral activity” value is listed as “yes”.

With `C[C@@H]1OC(=O)N(c2ccc(C#N)c(Cl)c2)[C@H]1[C@H](O)C(F)(F)F` [Example 21, 2-Chloro-4-((4S,5S)-5-methyl-2-oxo-4-((S)-2,2,2-trifluoro-1-hydroxyethyl)oxazolidin-3-yl)benzonitrile], in assay [1] (Table 1), the IC50 is 15 nM. Further, the “Oral activity” value in assay [2] (setting [3]) was “yes”.

In assay [1] (Table 1), `C[C@@H]1OC(=O)N(c2ccc(C#N)c(Cl)c2)[C@H]1[C@@H](O)C(F)(F)F` [Example 22, 2-Chloro-4-((4S,5S)-5-methyl-2-oxo-4-((R)-2,2,2-trifluoro-1-hydroxyethyl)oxazolidin-3-yl)benzonitrile] came in with an IC50 of 210 nM. In addition, the “Oral activity” value in assay [2] (setting [3]) is on record as “yes”.

In assay [1] (Table 1), `CN1C[C@H]([C@H](O)C(F)(F)F)N(c2ccc(C#N)c(C(F)(F)F)c2)C1=O` [Example 25, 4-((R)-5-((S)-2,2,2-trifluoro-1-hydroxyethyl)-3-methyl-2-oxoimidazolidin-1-yl)-2-(trifluoromethyl)benzonitrile] yielded an IC50 of 10 nM. Besides, in assay [2] (setting [3]), the “Oral activity” value is on record as “no”.

As for `CN1C[C@H]([C@@H](O)C(F)(F)F)N(c2ccc(C#N)c(C(F)(F)F)c2)C1=O` [Example 26, 4-((R)-5-((R)-2,2,2-trifluoro-1-hydroxyethyl)-3-methyl-2-oxoimidazolidin-1-yl)-2-(trifluoromethyl)benzonitrile], the IC50 in assay [1] (Table 1) was over 1000 nM. Also, the “Oral activity” value in assay [2] (setting [3]) is given as “no”.

As for `O=C1CC[C@H]([C@H](O)C(F)(F)F)N1c1ccc(Cl)c(Cl)c1` [Example 27, (R)-1-(3,4-dichlorophenyl)-5-((S)-2,2,2-trifluoro-1-hydroxyethyl)pyrrolidin-2-one], in assay [1] (Table 2), the IC50 came out at 62 nM. For the same compound, in assay [2] (Table 2), the “Oral activity” value is given as “yes”.

Consider `Cc1c(N2C(=O)CC[C@@H]2[C@H](O)C(F)(F)F)ccc(C#N)c1Cl` [Example 29, 2-chloro-4-((R)-2-((S)-2,2,2-trifluoro-1-hydroxyethyl)-5-oxopyrrolidin-1-yl)-3-methylbenzonitrile], for which, in assay [1] (Table 2), the IC50 was 25 nM. The “Oral activity” value in assay [2] (Table 2) is listed as “yes”.

`Cc1c(N2C(=O)CC[C@@H]2[C@@H](O)C(F)(F)F)ccc(C#N)c1Cl` [Example 30, 2-chloro-4-((R)-2-((R)-2,2,2-trifluoro-1-hydroxyethyl)-5-oxopyrrolidin-1-yl)-3-methylbenzonitrile]: the IC50 in assay [1] (Table 2) was 491 nM. Besides, in assay [2] (Table 2), the “Oral activity” value was “no”.

With `N#Cc1ccc(N2C(=O)CC[C@@H]2C(O)C(F)(F)F)cc1Cl` (stereo partly drawn) [Example 31, 2-chloro-4-((R)-2-(2,2,2-trifluoro-1-hydroxyethyl)-5-oxopyrrolidin-1-yl)benzonitrile], the IC50 in assay [1] (Table 2) worked out at 46 nM. Moreover, the “Oral activity” value in assay [2] (Table 2) was “yes”.
